1 molecule from patent US12539337B2 (priority 2013, dated 2026) can be followed below.

The structures appear in SMILES notation. “Also recorded” adds a separate entry of the source.

One experiment relates to sNMDARs. The experiment can be described thus: Whole-cell patch-clamp recordings of spontaneous NMDAR-mediated sEPSCs in cerebrocortical neurons. In kind it is cell-based, rat. To be noted: free memantine at 10 μM. Background: The patch-clamp technique gives a direct electrical read-out from membranes.
The next experiment relates to NMDARs. In kind it is cell-based, rat. To be noted: memantine alone; read-out: IC50 for blocking NMDARs.

Usually IC50 stands for the midpoint of a concentration-inhibition curve.

Method for sNMDARs: Whole-cell voltage-clamp recordings were performed from neurons after 14 days in vitro. […] All recordings were performed using an Axopatch 200B amplifier (Molecular Devices; Sunnyvale, CA, USA) at room temperature with a holding potential of −70 mV. Currents were digitally sampled at 10-20 kHz and filtered at 2-5 kHz.
Currents were acquired using a Digidata 1322 interface and pClamp 10.1 software. All recordings were made at room temperature at a holding potential of −70 mV. The extracellular solution contained the following: 137 mM NaCl, 1 mM NaHCO3, 0.34 mM Na2HPO4, 5.36 mM KCl, 0.44 mM KH2PO4, 3 mM CaCl2, 5 mM HEPES, 22.2 mM glucose, 0.01 mM glycine, and 0.003 mM strychnine, pH adjusted to 7.2. […]
The spontaneous NMDAR-mediated sEPSCs are usually presented as bursts, with each burst consisting of multiple EPSCs. […] Then, the values for charge transfer of each NMDAR-mediated sEPSC starting from the peak of the first NMDAR-mediated sEPSC and continuing to the baseline were determined, which took about 2 seconds in the majority of analyzed sEPSCs. […] Additionally, the frequency and amplitude of NMDAR-mediated sEPSCs were calculated for each experimental condition during about 100 seconds of recording time. The mean amplitude was calculated by averaging the amplitude of the maximal NMDA-mediated current in each burst. […]

As for `CC12CC3CC(C)(C1)CC(N)(C3)C2` [memantine, 3,5-dimethyladamantan-1-amine], the “effect on synaptic activity (sEPSCs)” value with sNMDARs is on record as “almost completely inhibit; also recorded: did block it”. Besides, the IC50 in the experiment with NMDARs was around 1000 nM.
